17 compounds from PubChem BioAssay (NCI) can be followed below.

Among the test systems are LOX IMVI melanoma; SK-MEL-2 melanoma; M14 melanoma; MOLT-4 leukemia; HL-60(TB) leukemia; KM12 colon; HT29 colon; T-47D breast.
Holding throughout (assay): NCI-60 cell line screen, 48 h

Molecules are shown by their SMILES.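 96-well plates; 48 h exposure; 5 concentrations. Endpoints by linear interpolation between flanking doses. Not reached: highest tested concentration assigned. GI50 is the concentration that inhibits growth by half. TGI: concentration producing complete growth inhibition.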

Turning to `O=[N+]([O-])c1cccc(-c2oc(C=Nc3ccccc3)c([N+](=O)[O-])c2-c2cccc([N+](=O)[O-])c2)c1`, the TGI in the test on LOX IMVI melanoma, in the test on SK-MEL-2 melanoma, in the test with M14 melanoma, with MOLT-4 leukemia, with HL-60(TB) leukemia and in the test on KM12 colon was above 100 µM in each case. Besides, in the test with HT29 colon, the TGI is above 100 µM.

Consider `COc1ccc(Nc2c3ccccc3nc3ccccc23)cc1`, for which the GI50 in the test on LOX IMVI melanoma is 0.984 µM; in the test with SK-MEL-2 melanoma it was 1.29 µM; with M14 melanoma it was 0.735 µM; with MOLT-4 leukemia, 0.59 µM; in the test with T-47D breast, 2.37 µM; in the test with HL-60(TB) leukemia, 1.69 µM. Besides, the GI50 was 1.33 µM in the test on KM12 colon and 0.454 µM with HT29 colon. Besides, the TGI with LOX IMVI melanoma is 4.81 µM; in the test on SK-MEL-2 melanoma it was 11.3 µM; in the test with M14 melanoma, 13.6 µM; in the test on MOLT-4 leukemia, 3.39 µM; in the test with T-47D breast, 14.3 µM; with HL-60(TB) leukemia, 4.1 µM. The TGI in the test with KM12 colon was determined as 15 µM; with HT29 colon, 2.71 µM.

For `C[C@]1(CO)CCC[C@@]2(C)C1CC[C@H]1CC3C[C@]12CC[C@]3(C)O` (stereo partly specified), the TGI is above 100 µM in the test on LOX IMVI melanoma; above 100 µM in the test on M14 melanoma; above 100 µM in the test on MOLT-4 leukemia; 41.1 µM in the test on HL-60(TB) leukemia; above 100 µM with KM12 colon; above 100 µM in the test with HT29 colon.

Turning to `C=C(Br)N(CC)CC`, the TGI with LOX IMVI melanoma, in the test with SK-MEL-2 melanoma, with M14 melanoma, in the test on MOLT-4 leukemia, with HL-60(TB) leukemia and with KM12 colon was above 100 µM each time. In the test with HT29 colon, this compound registered a TGI above 100 µM.

As to `COC1OC(COCc2ccc(Cl)cc2)C(OCc2ccc(Cl)cc2)C1N=[N+]=[N-]` (stereo unspecified), the TGI in the test with SK-MEL-2 melanoma, in the test with M14 melanoma, in the test with MOLT-4 leukemia, with KM12 colon and with HT29 colon was above 100 µM in each case.

As for `C1=CC=C2NCCCNC3=CC=CC=CC3=NCCCN=C2C=C1`, the TGI in the test on LOX IMVI melanoma, with SK-MEL-2 melanoma, in the test with M14 melanoma, with MOLT-4 leukemia, in the test on HL-60(TB) leukemia and in the test with KM12 colon was above 100 µM throughout. This compound also gave a TGI with HT29 colon above 100 µM.

With `CN(C)CCNC(=O)c1cccc2c1nc(-c1ccccc1)c1ccccc12`, the TGI in the test with LOX IMVI melanoma is 4.03 µM; in the test with SK-MEL-2 melanoma, 23.6 µM; with M14 melanoma it was 4.34 µM; in the test on MOLT-4 leukemia, 2.16 µM; with HL-60(TB) leukemia it was 8 µM; in the test on KM12 colon, 20.1 µM. This compound also gave a TGI in the test on HT29 colon of 13.1 µM.

Take `O=C(Cc1nc2ccccc2s1)Nc1cccc(C(F)(F)F)c1`: the TGI worked out at 26.2 µM with LOX IMVI melanoma; 33.8 µM in the test on SK-MEL-2 melanoma; 31.2 µM in the test with M14 melanoma; 25.8 µM with MOLT-4 leukemia; 17.8 µM with HL-60(TB) leukemia; 30.5 µM in the test with KM12 colon. Besides, the TGI in the test with HT29 colon came out at 33.9 µM.

On to `CC1C[C@@H]2C(=O)NC(=O)[C@@H]2c2c1c1ccccc1n2C` (stereo partly specified), for which the TGI in the test on LOX IMVI melanoma, with SK-MEL-2 melanoma, in the test with M14 melanoma, with MOLT-4 leukemia, in the test on HL-60(TB) leukemia and in the test with KM12 colon was above 100 µM in each case. The compound further gave a TGI with HT29 colon above 100 µM.

With `CCc1cccc(C(C)C)c1NC(=O)C(=O)C(CC(=O)Nc1ccc(Cl)c(Cl)c1)C(=O)OC` (stereo unspecified), the TGI with LOX IMVI melanoma, in the test on SK-MEL-2 melanoma, with M14 melanoma, with MOLT-4 leukemia, in the test on HL-60(TB) leukemia and with KM12 colon was above 100 µM throughout. Besides, in the test on HT29 colon, the TGI is above 100 µM.

Consider `COCCCNC(=O)CC(=O)NCCCOC`, for which the TGI in the test with SK-MEL-2 melanoma, in the test on M14 melanoma, in the test with MOLT-4 leukemia, in the test on HL-60(TB) leukemia, in the test with KM12 colon and with HT29 colon was above 100 µM in each case.

Take `CS(=O)(=O)N(N(CCCl)S(=O)(=O)c1ccccc1)S(C)(=O)=O`: the TGI in the test with SK-MEL-2 melanoma, with M14 melanoma, in the test with MOLT-4 leukemia, in the test with HL-60(TB) leukemia, with KM12 colon and with HT29 colon was above 100 µM in each case.

On to `S=c1cc(S)sc2c1c(=S)sc1nc3ccccn3c(=S)c12`, for which the TGI was above 100 µM in the test with LOX IMVI melanoma; above 100 µM in the test on SK-MEL-2 melanoma; above 100 µM in the test on M14 melanoma; above 100 µM in the test on MOLT-4 leukemia; 97.3 µM with HL-60(TB) leukemia; above 100 µM in the test on KM12 colon. The same compound showed a TGI with HT29 colon above 100 µM.

On to `O=C(Cn1ccnc1[N+](=O)[O-])c1ccc(F)cc1`, for which the TGI with LOX IMVI melanoma, in the test with SK-MEL-2 melanoma, in the test with M14 melanoma, with MOLT-4 leukemia, with HL-60(TB) leukemia and in the test with KM12 colon was above 100 µM each time. This compound also returned a TGI in the test on HT29 colon above 100 µM.

With `O=C(CCC(=O)C(C(=O)c1ccccc1)c1ccccc1)Nc1cccc(C(F)(F)F)c1` (stereo unspecified), the TGI with LOX IMVI melanoma, in the test with SK-MEL-2 melanoma, in the test with M14 melanoma, with MOLT-4 leukemia, with HL-60(TB) leukemia and in the test with KM12 colon was above 100 µM each time. Further, the TGI in the test on HT29 colon was above 100 µM.

For `CCCCCCCCCCCCCP(=O)(O)OCC`, the TGI with LOX IMVI melanoma, with SK-MEL-2 melanoma, in the test with M14 melanoma, with HL-60(TB) leukemia, in the test on KM12 colon and in the test on HT29 colon was above 100 µM in each case.

Take `O=[N+]([O-])c1cccc(C2ON2C2CCCCC2)c1` (stereo unspecified): the TGI in the test on SK-MEL-2 melanoma amounted to 62.8 µM; with M14 melanoma, 32.4 µM; in the test on MOLT-4 leukemia, 64.7 µM; with HL-60(TB) leukemia, 47.9 µM; with KM12 colon it was 21 µM; in the test with HT29 colon, 28 µM.
